The test system of one series is skin S. aureus. The conditions noted are these: literature (Murakami et al.); cited from earlier work.
Another series deals with Escherichia coli. Type of series: cell-based. From the text:
(§1) Microorganisms against which a polypeptide of the invention is active include prokaryotic and eukaryotic cells such as Gram-negative and Gram-positive bacteria, yeast and protozoa. Non-limiting examples include Listeria monocytogenes, Staphylococcus aureus, Escherichia coli, Klebsiella pneumoniae, Salmonella typhimurium, Pseudomonas aeruginosa, Proteus mirabilis, Salmonella enteritidis, Neisseria gonorrhoeae, Ureaplasma canigenitalium, Ureaplasma urealyticum, Candida albicans, Trichomonas vaginalis, Treponema pallidum or Chlamydia trachomatis, or a spoilage organism. […] MIC antimicrobial activity refers to complete inhibition of the growth of a microorganism, as judged by the naked eye, after a selected period of incubation. The method used to determine MIC is that set forth in Sang et al., Infection and Immunity, 2611-20 (May, 2005).
(§2) Microorganisms evaluated were: Candida albicans ATCC 11006 and 14053, Escherichia coli ATCC 25922, 700336, 700378, and BAA-457, Klebsiella pneumoniae ATCC 10031, Listeria monocytogenes ATCC 19155, Proteus mirabilis ATCC 12453, Pseudomonas aeruginosa ATCC 10145, Salmonella Enteritidis ATCC 13076, Salmonella Typhimurium ATCC 13311, Staphylococcus aureus ATCC 10832, Ureaplasma canigenitalium ATCC 51252, and Ureaplasma urealyticum ATCC 27619. C. albicans was grown overnight (35° C.) on potato dextrose agar and managed according to NCCSL standards (Pfaller et al., Manual NCCLS #M27-A2, 6th ed., Wayne, Pa. (2002)). U. canigenitalium and U urealyticum were stored at −20° C. in urea broth 10B (per ATCC specifications) and thawed at 5° C. the night prior to assay. All other bacteria were maintained on trypticase soy agar (Difco, Detroit, Mich.) plates at 37° C. Mid-logarithmic phase bacteria were grown by transferring single cell colonies into trypticase soy broth (Difco), followed by incubation and homogenization for 3 hours at 37° C. Bacterial pellets were obtained after centrifugation for 10 minutes at 4° C. at 900×g, and washed once, followed by suspension in 10 mM sodium phosphate buffer (PB, pH 7.4, [Na+]=17.83 mM). Initial bacterial concentrations were determined (Ferraro et al., Manual NCCLS #M7-A6, 6th ed., Wayne, Pa. (2003)). Initial bacterial populations of 10^8 CFU/mL were obtained at an optical density (OD) of 0.1 at 600 nm. C. albicans were suspended in 10 mM PB to a McFarland standard of 0.5 for an initial 10^8 CFU/ml following NCCLS standards (Pfaller et al., Manual NCCLS #M27-A2, 6th ed., Wayne, Pa. (2002)), except that the recommended 0.85% saline solution was replaced with 10 mM PB. All microbial serial dilutions were performed in 10 mM PB to obtain 10^3 CFU/mL working dilutions.
(§3) A modified broth microdilution method (Pfaller et al., Manual NCCLS #M27-A2, 6th ed., Wayne, Pa. (2002); Ferraro et al., Manual NCCLS #M7-A6, 6th ed., Wayne, Pa. (2003)) was used to determine the antimicrobial activity of K9CATH (Sang et al., Infect. Immun., 73:2611 (2005)). Briefly, 50 μL of the K9CATH working stocks were added to the wells of a microtiter plate in which 25 μL of 30 mM sodium PB (pH 7.4, [Na+]=53.49 mM), 25 μL H2O, and 50 μL of the microbial suspension had been previously combined. Microtiter plates were incubated at 37° C. for 2 hours in a shaking incubator (100 RPM), followed by the addition of 150 μL of the corresponding nutritive broth. Antimicrobial activity was determined by establishing the minimal inhibitory concentrations (MIC), defined as the lowest concentration in which microbial growth was prevented, as indicated by the lack of turbidity or color change in the medium (urea broth 10B) after 24 hours of incubation at 37° C. Treated gonorrheal suspension (50 μL) was spot-plated on chocolate agar, and the MIC was defined as the lowest concentration in which no colonies developed after 24 hours of incubation at 37° C. in 5% CO2. […]

A further series relates to Klebsiella pneumoniae. It is filed as cell-based.
Description: as §1, §2, §3

A further series concerns Listeria monocytogenes. Type of series: cell-based.
Description: as §1, §2, §3

In a further series the test system is Proteus mirabilis. It is filed as cell-based.
Description: as §1, §2, §3

The test system of another series is Pseudomonas aeruginosa. Type of series: cell-based.
Description: as §1, §2, §3

Another series deals with Salmonella Enteritidis. Type of series: cell-based.
Description: as §1, §2, §3

A further series relates to Salmonella Typhimurium. Type of series: cell-based.
Description: as §1, §2, §3

The test system of the next series is Ureaplasma urealyticum. It is filed as cell-based.
Description: as §1, §2, §3

A further series deals with dog erythrocytes. Type of series: cell-based. The method, then: (§4) Hemolytic activity of K9CATH was determined (Skerlavag, FEBS Lett., 463:58 (1999); Yu et al., J. Pept. Res., 60:1 (2002)). Briefly, 4 mL of canine blood was collected in EDTA-containing blood collection tubes (Becton Dickinson, Franklin Lakes, N.J.). Whole blood was then centrifuged at 10,000×g for 1 minute at room temperature. Plasma was discarded (supernatant) and erythrocytes were washed twice with PBS, re-suspended to a 0.5% (vol/vol) solution in PBS, and 90 μL dispensed into 96-well microtiter plates. Different concentrations of K9CATH dissolved in 0.01% acetic acid were added in duplicate to dog cells and incubated at 37° C. for 2 hours. Following centrifugation at 8000×g for 10 minutes, supernatants were transferred to new 96-well microtiter plates and monitored by measuring the absorbance at […] for released hemoglobin. Controls for 0 and 100% hemolysis consisted of cells suspended in PBS only and in 1.0% Triton X-100, respectively. Percentage of hemolysis (%) was calculated as [(OD415 nm, peptide solution−OD415 nm, PBS only)/(OD415 nm, 1% Triton X-100−OD 415 nm, PBS only)]×100. The N-terminal 18 amino acid segment of bovine myeloid antimicrobial peptide 28 (BMAP-28(1-18)) (Skerlavaj et al., J. Biol. Chem., 271:28375 (1996); Yu et al., J. Pept. Res., 60:1 (2002); Risso et al., Cell. Immunol., 189:107 (1998)) was used as a positive control. […]

The subject of another series is chicken erythrocytes. Type of series: cell-based. The method, then: FIG. 9. Hemolytic Activity of Canine Cathelicidin. The assays were performed with chicken red blood cells as previously described (49). The data shown represent the mean of duplicate values from two independent experiments.
as §4, with “only)]×100.” for “only)]×100. The N-terminal 18 amino acid segment of bovine myeloid antimicrobial peptide 28 (BMAP-28(1-18)) (Skerlavaj et al., J. Biol. Chem., 271:28375 (1996); Yu et al., J. Pept. Res., 60:1 (2002); Risso et al., Cell. Immunol., 189:107 (1998)) was used as a positive control.”

Ends that are not written are not given here.

With “LL-37: human cathelicidin antimicrobial peptide (LLGDFFRKSKEKIGKEFKRIVQRIKDFLRNLVPRTES; Antibacterial peptide LL-37; UniProt P49913 134-170, looked up)”, the “concentration inhibiting skin S. aureus” value with skin S. aureus was over 64 µM.

A word on the MIC: it is the smallest concentration in the dilution series that meets the test's criterion for growth inhibition. Regarding “RLKELITTGGQKIGEKIRRIGQRIKDFFKNLQPREEKS [K9CATH]”, the MIC against Escherichia coli came out at 1.11 µM; in the series on Klebsiella pneumoniae, 1.11 µM; in the series with Listeria monocytogenes, 0.44 µM; in the series with Proteus mirabilis, 1.11 µM; in the series on Pseudomonas aeruginosa it was 1.11 µM; against Salmonella Enteritidis it was 0.44 µM. Besides, the MIC in the series on Salmonella Typhimurium was 1.11 µM; against Ureaplasma urealyticum it was 44.33 µM. The “lower in vitro hemolytic activity compared to BMAP-18” value with dog erythrocytes and with chicken erythrocytes was 10-20 fold each time.
